Experiments:
Assay in all cases: Transcription activation potential, GAL4 luciferase reporter in C3A cells
Assay type in all cases: cell-based
[1] = molecular target: T1, Human PPARα LBD fusion protein (Homo sapiens, UniProt Q07869)
T1 construct: a.a; 167-468)
T1 sequence (Q07869 167-468): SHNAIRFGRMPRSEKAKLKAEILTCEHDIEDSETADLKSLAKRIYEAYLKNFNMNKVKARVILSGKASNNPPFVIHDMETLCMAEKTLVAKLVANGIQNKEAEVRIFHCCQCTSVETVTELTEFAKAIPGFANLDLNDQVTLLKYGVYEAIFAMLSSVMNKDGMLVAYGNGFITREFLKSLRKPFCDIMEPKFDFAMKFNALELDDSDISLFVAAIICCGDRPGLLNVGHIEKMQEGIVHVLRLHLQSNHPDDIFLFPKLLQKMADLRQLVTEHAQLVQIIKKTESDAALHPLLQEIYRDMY

[2] = molecular target: T2, Mouse PPARα LBD fusion protein (Mus musculus, UniProt P23204)
T2 sequence (P23204 239-466): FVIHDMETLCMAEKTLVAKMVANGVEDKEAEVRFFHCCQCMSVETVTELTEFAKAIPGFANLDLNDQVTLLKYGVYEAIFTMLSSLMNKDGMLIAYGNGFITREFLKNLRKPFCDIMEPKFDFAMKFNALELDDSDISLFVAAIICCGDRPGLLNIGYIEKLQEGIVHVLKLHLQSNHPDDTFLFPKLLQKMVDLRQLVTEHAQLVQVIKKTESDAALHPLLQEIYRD

[3] = tested on: Human PPARγ LBD fusion protein
[4] = molecular target: T3, Mouse PPARγ LBD fusion protein (Mus musculus, UniProt P37238)
T3 sequence (P37238 238-503): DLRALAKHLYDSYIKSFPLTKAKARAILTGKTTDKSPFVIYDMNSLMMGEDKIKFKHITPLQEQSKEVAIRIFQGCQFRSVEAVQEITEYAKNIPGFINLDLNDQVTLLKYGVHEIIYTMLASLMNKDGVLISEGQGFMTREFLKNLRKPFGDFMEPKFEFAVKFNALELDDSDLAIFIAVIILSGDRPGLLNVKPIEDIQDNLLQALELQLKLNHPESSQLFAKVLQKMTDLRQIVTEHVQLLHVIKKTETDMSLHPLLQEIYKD

**Q.** What does the source list for `Cc1cccc(C)c1COc1cccc(CC(=O)O)c1` [Compound CF, 3-(2,6-Dimethylbenzyloxy)phenylacetic acid]?
**A.** transcription activation potential (luciferase) ± standard deviation ([1]; 1 μM): 37 ± 11.5 LCPS; transcription activation potential (luciferase) ± standard deviation ([1]; 3 μM): 47 ± 22.8 LCPS; transcription activation potential (luciferase) ± standard deviation ([1]; 10 μM): 19.9 ± 7.8 LCPS; transcription activation potential (luciferase) ± standard deviation ([1]; 30 μM): 40.2 ± 18.9 LCPS; transcription activation potential (luciferase) ± standard deviation ([1]; 100 μM): 19 ± 14.2 LCPS; transcription activation potential (luciferase) ± standard deviation ([1]; 200 μM): 12.9 ± 8.3 LCPS; transcription activation potential (luciferase) ± standard deviation ([2]; 1 μM, Table 20a): 13.17 ± 7.84 LCPS; transcription activation potential (luciferase) ± standard deviation ([2]; 1 μM, Table 21a): 2694 ± 159 RLU; transcription activation potential (luciferase) ± standard deviation ([2]; 3 μM, Table 20a): 5.63 ± 0.42 LCPS; transcription activation potential (luciferase) ± standard deviation ([2]; 3 μM, Table 21a): 4527 ± 740 RLU; transcription activation potential (luciferase) ± standard deviation ([2]; 5 μM, Table 21a): 7188 ± 1753 RLU; transcription activation potential (luciferase) ± standard deviation ([2]; 7 μM, Table 21a): 14325 ± 1032 RLU; transcription activation potential (luciferase) ± standard deviation ([2]; 10 μM, Table 20a): 153.15 ± 24.4 LCPS; transcription activation potential (luciferase) ± standard deviation ([2]; 10 μM, Table 21a): 16680 ± 2432 RLU; transcription activation potential (luciferase) ± standard deviation ([2]; 30 μM, Table 20a): 358.6 ± 5.23 LCPS; transcription activation potential (luciferase) ± standard deviation ([2]; 30 μM, Table 21a): 38105 ± 3133 RLU; transcription activation potential (luciferase) ± standard deviation ([2]; 100 μM, Table 20a): 201.5 ± 50.84 LCPS; transcription activation potential (luciferase) ± standard deviation ([2]; 100 μM, Table 21a): 41037 ± 5401 RLU; transcription activation potential (luciferase) ± standard deviation ([2]; 200 μM, Table 20a): 106.77 ± 32.53 LCPS; transcription activation potential (luciferase) ± standard deviation ([3]; 1 μM test compound): 6.2 ± 0.6 LCPS; transcription activation potential (luciferase) ± standard deviation ([3]; 3 μM test compound): 49.4 ± 7.8 LCPS; transcription activation potential (luciferase) ± standard deviation ([3]; 10 μM test compound): 141.5 ± 25.9 LCPS; transcription activation potential (luciferase) ± standard deviation ([3]; 30 μM test compound): 230.4 ± 97.2 LCPS; transcription activation potential (luciferase) ± standard deviation ([3]; 100 μM test compound): 225.2 ± 57.5 LCPS; transcription activation potential (luciferase) ± standard deviation ([3]; 200 μM test compound): 280.1 ± 89.7 LCPS; transcription activation potential (luciferase) ± standard deviation ([4]; 1 μM test compound, Table 20b): 0.33 ± 0.21 LCPS; transcription activation potential (luciferase) ± standard deviation ([4]; 1 μM, Table 21b): 146 ± 119 RLU; transcription activation potential (luciferase) ± standard deviation ([4]; 3 μM test compound, Table 20b): 10.6 ± 8.74 LCPS; transcription activation potential (luciferase) ± standard deviation ([4]; 3 μM, Table 21b): 579 ± 557 RLU; transcription activation potential (luciferase) ± standard deviation ([4]; 5 μM, Table 21b): 476 ± 527 RLU; transcription activation potential (luciferase) ± standard deviation ([4]; 7 μM, Table 21b): 834 ± 984 RLU; transcription activation potential (luciferase) ± standard deviation ([4]; 10 μM test compound, Table 20b): 17.2 ± 21 LCPS; transcription activation potential (luciferase) ± standard deviation ([4]; 10 μM, Table 21b): 207 ± 107 RLU; transcription activation potential (luciferase) ± standard deviation ([4]; 30 μM test compound, Table 20b): 88.2 ± 33.2 LCPS; transcription activation potential (luciferase) ± standard deviation ([4]; 30 μM, Table 21b): 818 ± 1201 RLU; transcription activation potential (luciferase) ± standard deviation ([4]; 100 μM test compound, Table 20b): 45.8 ± 36.9 LCPS; transcription activation potential (luciferase) ± standard deviation ([4]; 100 μM, Table 21b): 237 ± 216 RLU; transcription activation potential (luciferase) ± standard deviation ([4]; 200 μM test compound, Table 20b): 93.6 ± 29.7 LCPS

— patent US7932290B2, “Method for the treatment of metabolic disorders” (Wellstat Biologics Corporation, priority 2003, dated 2011)
